Source: patent publication US5128331A, “Method for lowering plasma lipid levels or blood pressure” (priority 1988, dated 1992)
Like-named read-outs stand apart in the source and are kept apart here.

Test system: mice of the OF1 strain
Assay: Hypolipidemic activity: plasma cholesterol and plasma triglycerides in mice fed compound in chow
Assay type: in vivo
Settings: for change in vivo at 180 mg/kg: Mus musculus, feed or water, 240 h
Protocol: With the goal of finding new drugs which might be hypolipidemic, the new diphosphonates described in this patent application were administered orally to mice. This rodent species has plasma lipid level relatively close to man (generally greater than 150 mg/dl). For example, in mice receiving a normal diet the plasma cholesterol and triglyceride levels are in the range of 100 mg/dl, whereas for rat the comparative values are close to 50 mg/dl.
In every screening experiment, 30 mice of the OF1 strain weighing 25 to 35 g were divided into 5 groups of 6 animals each. Four groups received the compounds to be tested, or the reference drugs, the fifth group served as control. Compounds were dissolved in diethyl ether, and solution was added to the pelleted food and the ether was evaporated.
All compounds were tested at the final concentration of 0.1% in animal chow, equivalent to a daily intake of about 180 mg/kg. This diet was fed for 10 days, then after an overnight fasting the animals were sacrified by decapitation under ether anesthesia. Blood samples were collected in EDTA containing tubes.
Plasma cholesterol and plasma triglycerides were measured by enzymatic methods (Ames kit No. 6376 and No. 6630).

[1] = read-out: Cholesterol (% control)
[2] = read-out: Triglycerides (% control)
[3] = mice, 0.1% in animal chow (about 180 mg/kg daily), 10 days, Table 3, given as change from control, read-out: Cholesterol (% control)
[4] = mice, 0.1% in animal chow (about 180 mg/kg daily), 10 days, Table 3, given as change from control, read-out: Triglycerides (% control)

Work on `COP(=O)(OC)C(Cc1cc(C(C)(C)C)c(O)c(C(C)(C)C)c1)P(=O)(OC)OC` [Compound 10, Tetramethyl 2-(3,5-ditertiarybutyl-4-hydroxyphenyl)-ethylidene-1,1-diphosphonate] yielded a change in vivo at 180 mg/kg [1] of -5% and a change in vivo at 180 mg/kg [2] of -19%.

For `CCOP(=O)(OCC)C(=Cc1cc(C)c(O)c(C(C)(C)C)c1)P(=O)(OCC)OCC` [Compound 30, Tetraethyl 2-(3-tertiarybutyl-4-hydroxy-5-methylphenyl)-ethenylidene-1,1-diphosphonate], the change in vivo at 180 mg/kg [1] was 2%, the change in vivo at 180 mg/kg [2] was -45% and the “decreased plasma triglycerides by” value (mice, 0.1% in chow, 10 days) was “more than 44%”. The “hypotriglyceridemia (in words)” value (mice, 0.1% in chow, 10 days) was “significant hypotriglyceridemia”.

With `CCOP(=O)(OCC)C(CC)(Cc1cc(C(C)(C)C)c(O)c(C(C)(C)C)c1)P(=O)(OCC)OCC` [Compound 21, Tetraethyl 1-(3,5-ditertiarybutyl-4-hydroxyphenyl)-butylidene-2,2-diphosphonate] the change in vivo at 180 mg/kg [1] was -16%, the change in vivo at 180 mg/kg [2] was -28% and the “hypocholesterolemic activity (in words)” value (mice, 0.1% in chow, 10 days) was “hypocholesterolemic”. The “hypotriglyceridemia (in words)” value (mice, 0.1% in chow, 10 days) was “significant hypotriglyceridemia”.

For `CC(C)(C)c1cc(CC(P2(=O)OCCCO2)P2(=O)OCCCO2)cc(C(C)(C)C)c1O` [Compound 24], the change in vivo at 180 mg/kg [3] was -20%, the change in vivo at 180 mg/kg [4] was -71% and the “decreased plasma triglycerides by” value (mice, 0.1% in chow, 10 days) was “more than 44%”. For the same molecule, the “hypocholesterolemic activity (in words)” value (mice, 0.1% in chow, 10 days) was “hypocholesterolemic” and the “hypotriglyceridemia (in words)” value (mice, 0.1% in chow, 10 days) was “significant hypotriglyceridemia”.

Molecule `CCOP(=O)(OCC)C(CCCCCCSc1cc(C(C)(C)C)c(O)c(C(C)(C)C)c1)P(=O)(OCC)OCC` [Compound 20, Tetraethyl 7-(3,5-ditertiarybutyl-4-hydroxyphenylthio)-heptylidene-1,1-diphosphonate] has a change in vivo at 180 mg/kg [1] of 5% and a change in vivo at 180 mg/kg [2] of 13%.

For `Cc1ccc(C)c(OCCCC(C)(C)C(=O)O)c1` [Gemfibrozil, reference compound], the change in vivo at 180 mg/kg [3] was -7%, the change in vivo at 180 mg/kg [4] was -35% and the “hypocholesterolemic activity (in words)” value (mice, 0.1% in chow, 10 days) was “less hypocholesterolemic than many of the diphosphonates tested”. The “hypotriglyceridemic potency (plasma triglyceride change)” value (mice, 0.1% in chow, 10 days) was -35%.

With `CC(C)OP(=O)(OC(C)C)C(=Cc1cc(C(C)(C)C)c(O)c(C(C)(C)C)c1)P(=O)(OC(C)C)OC(C)C` [Compound 34] the change in vivo at 180 mg/kg [3] was -41%, the change in vivo at 180 mg/kg [4] was 11% and the “hypocholesterolemic activity (in words)” value (mice, 0.1% in chow, 10 days) was “hypocholesterolemic”. The “hypocholesterolemic potency (plasma cholesterol change)” value (mice, 0.1% in chow, 10 days) was -41%.

For `COP(=O)(OC)C(=Cc1cc(C(C)(C)C)c(O)c(C(C)(C)C)c1)P(=O)(OC)OC` [Compound 47], the change in vivo at 180 mg/kg [1] was -31%, the change in vivo at 180 mg/kg [2] was -45% and the “decreased plasma triglycerides by” value (mice, 0.1% in chow, 10 days) was “more than 44%”. For the same molecule, the “hypocholesterolemic activity (in words)” value (mice, 0.1% in chow, 10 days) was “hypocholesterolemic” and the “hypotriglyceridemia (in words)” value (mice, 0.1% in chow, 10 days) was “significant hypotriglyceridemia”.

`CCOP(=O)(OCC)C(=Cc1cc(C(C)(C)C)c(OC(C)=O)c(C(C)(C)C)c1)P(=O)(OCC)OCC` [Compound 41, Tetraethyl 2-(3,5-ditertiarybutyl-4-acetoxyphenyl)-ethenylidene-1,1-diphosphonate] gave a change in vivo at 180 mg/kg [1] of -3% and a change in vivo at 180 mg/kg [2] of 6%.

Work on `CCCCOP(=O)(OCCCC)C(=Cc1cc(C(C)(C)C)c(O)c(C(C)(C)C)c1)P(=O)(OCC)OCC` [Compound 42, Dibutyl diethyl 2-(3,5-ditertiarybutyl-4-hydroxyphenyl)-ethenylidene-1,1-diphosphonate] yielded a change in vivo at 180 mg/kg [1] of 12% and a change in vivo at 180 mg/kg [2] of 1%.

With `CCOC(=O)C(C)(C)Oc1ccc(Cl)cc1` [Clofibrate, reference compound] the change in vivo at 180 mg/kg [3] was 4%, the change in vivo at 180 mg/kg [4] was -5% and the “hypocholesterolemic activity (in words)” value (mice, 0.1% in chow, 10 days) was “less hypocholesterolemic than many of the diphosphonates tested”.

`CCOP(=O)(OCC)C(=Cc1cc(C(C)CC)c(O)c(C(C)CC)c1)P(=O)(OCC)OCC` (stereo not drawn) [Compound 32] gave a change in vivo at 180 mg/kg [1] of 8% and a change in vivo at 180 mg/kg [2] of 9%.

With `CCCOP(=O)(OCCC)C(Cc1cc(C(C)(C)C)c(O)c(C(C)(C)C)c1)P(=O)(OCCC)OCCC` [Compound 23] the change in vivo at 180 mg/kg [1] was -15%, the change in vivo at 180 mg/kg [2] was -33% and the “hypocholesterolemic activity (in words)” value (mice, 0.1% in chow, 10 days) was “hypocholesterolemic”. For the same molecule, the “hypotriglyceridemia (in words)” value (mice, 0.1% in chow, 10 days) was “significant hypotriglyceridemia”.

In the case of `CCOP(=O)(OCC)C(=Cc1cc(OC)c(O)c(OC)c1)P(=O)(OCC)OCC` [Compound 37], the change in vivo at 180 mg/kg [1] was -16%, the change in vivo at 180 mg/kg [2] was -70% and the “decreased plasma triglycerides by” value (mice, 0.1% in chow, 10 days) was “more than 44%”. For the same molecule, the “hypocholesterolemic activity (in words)” value (mice, 0.1% in chow, 10 days) was “hypocholesterolemic” and the “hypotriglyceridemia (in words)” value (mice, 0.1% in chow, 10 days) was “significant hypotriglyceridemia”.

`CCOP(=O)(OCC)C(Cc1cc(C(C)(C)C)c(O)c(C(C)(C)C)c1)P(=O)(N(C)C)N(C)C` (stereo not drawn) [Compound 19, Diethyl 1-bis(dimethylamino)phosphinyl-2-(3,5-ditertiarybutyl-4-hydroxyphenyl)ethylphosphonate] was tested, and the change in vivo at 180 mg/kg [1] was -6%, the change in vivo at 180 mg/kg [2] was -44% and the “decreased plasma triglycerides by” value (mice, 0.1% in chow, 10 days) was “more than 44%”.

With `CCOP(=O)(OCC)C(=Cc1ccc2c(c1)OCO2)P(=O)(OCC)OCC` [Compound 38, Tetraethyl 2(3,4-methylenedioxyphenyl)-ethenylidene-1,1-diphosphonate] the change in vivo at 180 mg/kg [1] was -5% and the change in vivo at 180 mg/kg [2] was -6%.

`CCOP(=O)(OCC)C(=Cc1cc(C(C)(C)C)cc(C(C)(C)C)c1O)P(=O)(OCC)OCC` [Compound 46] was tested, and the change in vivo at 180 mg/kg [1] was 1% and the change in vivo at 180 mg/kg [2] was -12%.

Molecule `CCOP(=O)(OCC)C(Cc1cc(C)c(O)c(C(C)(C)C)c1)P(=O)(OCC)OCC` [Compound 1, Tetraethyl 2-(3-tertiarybutyl-4-hydroxy-5-methylphenyl)-ethylidene-1,1-diphosphonate] has a change in vivo at 180 mg/kg [1] of -2% and a change in vivo at 180 mg/kg [2] of -28%.

For `CC(C)OC(=O)C(C)(C)Oc1ccc(C(=O)c2ccc(Cl)cc2)cc1` [Fenofibrate, reference compound], the change in vivo at 180 mg/kg [3] was -15%, the change in vivo at 180 mg/kg [4] was -2% and the “hypocholesterolemic activity (in words)” value (mice, 0.1% in chow, 10 days) was “less hypocholesterolemic than many of the diphosphonates tested”. For the same molecule, the “hypocholesterolemic potency (plasma cholesterol change)” value (mice, 0.1% in chow, 10 days) was -15%.

For `CCOP(=O)(OCC)C(Sc1cc(C(C)(C)C)c(O)c(C(C)(C)C)c1)P(=O)(OCC)OCC` [Compound 5, Tetraethyl 3,5-ditertiary-4-hydroxyphenylthio-methylenediphosphonate], the change in vivo at 180 mg/kg [1] was -22%, the change in vivo at 180 mg/kg [2] was -24% and the “hypocholesterolemic activity (in words)” value (mice, 0.1% in chow, 10 days) was “hypocholesterolemic”. The “hypotriglyceridemia (in words)” value (mice, 0.1% in chow, 10 days) was “significant hypotriglyceridemia”.

`CCCOP(=O)(OCCC)C(=Cc1cc(C(C)(C)C)c(O)c(C(C)(C)C)c1)P(=O)(OCCC)OCCC` [Compound 48] was tested, and the change in vivo at 180 mg/kg [3] was -21%, the change in vivo at 180 mg/kg [4] was -36% and the “hypocholesterolemic activity (in words)” value (mice, 0.1% in chow, 10 days) was “hypocholesterolemic”. For the same molecule, the “hypotriglyceridemia (in words)” value (mice, 0.1% in chow, 10 days) was “significant hypotriglyceridemia”.

In the case of `CCOP(=O)(OCC)C(=Cc1cc(C(C)C)c(O)c(C(C)C)c1)P(=O)(OCC)OCC` [Compound 31], the change in vivo at 180 mg/kg [1] was 4%, the change in vivo at 180 mg/kg [2] was -11% and the “hypotriglyceridemia (in words)” value (mice, 0.1% in chow, 10 days) was “significant hypotriglyceridemia”.

`CCCCOP(=O)(OCCCC)C(=Cc1cc(C(C)(C)C)c(O)c(C(C)(C)C)c1)P(=O)(OCCCC)OCCCC` [Compound 35] gave a change in vivo at 180 mg/kg [3] of 0% and a change in vivo at 180 mg/kg [4] of 7%.

Work on `CCOP(=O)(OCC)C(Cc1cc(C(C)C)c(O)c(C(C)C)c1)P(=O)(OCC)OCC` [Compound 2] yielded a change in vivo at 180 mg/kg [1] of 6% and a change in vivo at 180 mg/kg [2] of -17%.

Work on `CCOP(=O)(OCC)C(=Cc1ccc2c(c1)OCCO2)P(=O)(OCC)OCC` [Compound 39] yielded a change in vivo at 180 mg/kg [1] of 4% and a change in vivo at 180 mg/kg [2] of 17%.
